Measurements published in patent publication US8067042B1 (Mutual Pharmaceutical Company, Inc., priority 2007, dated 2011).
“And” between values parts separate entries of the source, which are not always exact repeats. Equal entries are not always repeated. Where two headings read alike, the source gives them in different places.

How the values were obtained:
CYP2A6 [1] = molecular target: T1, CYP2A6 (Homo sapiens, UniProt P11509); conditions: 10 μM Tranylcypromine
T1 sequence (P11509 1-494): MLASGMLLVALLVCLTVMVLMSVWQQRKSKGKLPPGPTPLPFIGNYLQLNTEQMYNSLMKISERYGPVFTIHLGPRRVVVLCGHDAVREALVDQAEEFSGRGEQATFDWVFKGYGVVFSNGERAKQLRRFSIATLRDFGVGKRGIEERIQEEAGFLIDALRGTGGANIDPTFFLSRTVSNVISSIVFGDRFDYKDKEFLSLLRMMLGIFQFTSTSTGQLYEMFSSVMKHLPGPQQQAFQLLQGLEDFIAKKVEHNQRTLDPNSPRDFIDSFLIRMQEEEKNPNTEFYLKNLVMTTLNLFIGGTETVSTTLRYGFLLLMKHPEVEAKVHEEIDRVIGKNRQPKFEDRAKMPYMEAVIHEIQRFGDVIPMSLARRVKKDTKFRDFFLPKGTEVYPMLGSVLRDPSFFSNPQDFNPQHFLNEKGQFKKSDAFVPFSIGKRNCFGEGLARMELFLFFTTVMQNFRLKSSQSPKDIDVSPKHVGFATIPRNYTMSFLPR

CYP2E1 [2] = molecular target: T2, CYP2E1 (Homo sapiens, UniProt P05181); conditions: 60 min, 100 μM, pH 7.4
T2 sequence (P05181 whole entry): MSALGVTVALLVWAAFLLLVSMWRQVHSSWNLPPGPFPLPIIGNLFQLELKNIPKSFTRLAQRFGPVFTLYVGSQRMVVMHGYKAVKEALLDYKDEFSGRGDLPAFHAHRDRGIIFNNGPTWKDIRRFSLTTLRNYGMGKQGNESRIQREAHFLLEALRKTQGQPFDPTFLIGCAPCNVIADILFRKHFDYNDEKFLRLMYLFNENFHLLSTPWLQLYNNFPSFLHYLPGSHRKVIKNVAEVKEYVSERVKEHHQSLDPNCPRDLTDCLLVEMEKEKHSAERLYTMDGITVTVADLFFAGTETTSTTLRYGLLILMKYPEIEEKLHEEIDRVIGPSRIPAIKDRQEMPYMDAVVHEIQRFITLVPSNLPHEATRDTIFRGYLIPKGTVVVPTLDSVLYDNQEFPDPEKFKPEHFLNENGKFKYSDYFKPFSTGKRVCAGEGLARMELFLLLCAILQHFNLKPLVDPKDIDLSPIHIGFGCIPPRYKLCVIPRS

CYP1A2 = molecular target: T3, CYP1A2 (Homo sapiens, UniProt P05177); conditions: 60 min, 5 μM, pH 7.4
T3 sequence (P05177 1-516): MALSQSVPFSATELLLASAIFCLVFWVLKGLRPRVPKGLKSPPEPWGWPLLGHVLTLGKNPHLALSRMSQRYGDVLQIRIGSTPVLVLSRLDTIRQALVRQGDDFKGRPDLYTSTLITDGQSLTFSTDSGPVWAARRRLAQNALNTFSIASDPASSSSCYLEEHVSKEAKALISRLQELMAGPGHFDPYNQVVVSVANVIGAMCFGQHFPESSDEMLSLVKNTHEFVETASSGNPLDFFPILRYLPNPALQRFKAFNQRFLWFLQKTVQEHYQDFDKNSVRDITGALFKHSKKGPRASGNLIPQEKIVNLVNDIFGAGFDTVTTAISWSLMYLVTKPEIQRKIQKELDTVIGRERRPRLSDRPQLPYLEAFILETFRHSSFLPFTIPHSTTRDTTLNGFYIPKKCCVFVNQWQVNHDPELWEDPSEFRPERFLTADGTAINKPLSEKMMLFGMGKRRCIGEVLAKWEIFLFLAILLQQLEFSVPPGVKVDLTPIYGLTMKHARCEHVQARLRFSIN

CYP2C8 [3] = type: in vitro ADME; conditions: 50 μM megestrol acetate (Parent)
CYP2E1 [4] = type: in vitro ADME; conditions: 50 μM megestrol acetate (Parent)
CYP2A6 [5] = conditions: 50 μM megestrol acetate (Parent), 0.5 mg/mL pooled human liver microsomes with 1% water (no inhibitor)
CYP2B6 [6] = molecular target: T4, CYP2B6 (Homo sapiens, UniProt P20813); conditions: 50 μM megestrol acetate (Parent), 0.5 mg/mL pooled human liver microsomes with 1% methanol (no inhibitor)
T4 sequence (P20813 1-491): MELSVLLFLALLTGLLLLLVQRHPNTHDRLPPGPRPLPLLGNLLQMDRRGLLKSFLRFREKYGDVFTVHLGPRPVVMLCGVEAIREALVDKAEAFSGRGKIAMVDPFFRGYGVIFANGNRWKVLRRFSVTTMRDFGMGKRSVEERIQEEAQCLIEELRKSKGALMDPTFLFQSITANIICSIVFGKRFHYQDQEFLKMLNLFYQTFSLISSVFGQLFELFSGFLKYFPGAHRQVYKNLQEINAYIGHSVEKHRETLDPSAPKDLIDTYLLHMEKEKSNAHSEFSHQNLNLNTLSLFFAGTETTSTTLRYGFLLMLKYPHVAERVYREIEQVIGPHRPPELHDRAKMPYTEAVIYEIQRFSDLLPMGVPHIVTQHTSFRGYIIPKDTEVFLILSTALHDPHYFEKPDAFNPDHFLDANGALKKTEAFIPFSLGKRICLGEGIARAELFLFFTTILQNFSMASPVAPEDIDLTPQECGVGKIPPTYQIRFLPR

CYP2A6 [7] = molecular target: T1, CYP2A6; type: in vitro ADME; parameters: purchased BD Biosciences Discovery Labware, Woburn, Mass; host or cells: baculovirus-infected insect cells; conditions: LC/MS; 50 μM megestrol acetate (Parent), 20 pmol Human CYP2A6 + P450 Reductase + Cytochrome b5 SUPERSOMES
CYP2B6 [8] = molecular target: T4, CYP2B6; type: in vitro ADME; parameters: purchased BD Biosciences Discovery Labware, Woburn, Mass; host or cells: baculovirus-infected insect cells; conditions: LC/MS; 50 μM megestrol acetate (Parent), 20 pmol Human CYP2B6 + P450 Reductase + Cytochrome b5 SUPERSOMES
CYP2C8 [9] = molecular target: T5, CYP2C8 (Homo sapiens, UniProt P10632); type: in vitro ADME; parameters: purchased BD Biosciences Discovery Labware, Woburn, Mass; host or cells: baculovirus-infected insect cells; conditions: LC/MS; 50 μM megestrol acetate (Parent), 20 pmol Human CYP2C8 + P450 Reductase + Cytochrome b5 SUPERSOMES
T5 sequence (P10632 1-490): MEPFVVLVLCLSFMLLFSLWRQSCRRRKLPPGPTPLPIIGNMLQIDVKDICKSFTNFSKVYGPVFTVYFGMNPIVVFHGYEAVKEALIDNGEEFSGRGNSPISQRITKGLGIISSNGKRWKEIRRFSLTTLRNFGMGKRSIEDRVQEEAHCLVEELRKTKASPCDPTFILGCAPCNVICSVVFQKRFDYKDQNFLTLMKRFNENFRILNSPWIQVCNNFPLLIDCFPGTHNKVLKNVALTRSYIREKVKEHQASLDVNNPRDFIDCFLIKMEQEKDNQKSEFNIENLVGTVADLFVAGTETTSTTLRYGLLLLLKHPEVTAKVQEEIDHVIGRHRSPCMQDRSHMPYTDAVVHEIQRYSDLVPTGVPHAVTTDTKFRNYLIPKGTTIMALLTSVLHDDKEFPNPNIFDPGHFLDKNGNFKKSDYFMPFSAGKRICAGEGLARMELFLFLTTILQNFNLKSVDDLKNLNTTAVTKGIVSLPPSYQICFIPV

CYP2E1 [10] = molecular target: T2, CYP2E1; type: in vitro ADME; parameters: purchased BD Biosciences Discovery Labware, Woburn, Mass; host or cells: baculovirus-infected insect cells; conditions: LC/MS; 50 μM megestrol acetate (Parent), 20 pmol Human CYP2E1 + P450 Reductase + Cytochrome b5 SUPERSOMES
CYP2C8 [11] = molecular target: T5, CYP2C8; conditions: 60 min, 100 μM, pH 7.4
Description: After a 5-minute pre-incubation, NRS was added to the incubation mixtures to initiate reactions. The final incubation volume was 0.5 mL. Incubations were continued for 60 minutes. […] In these experiments, each CYP isoform-selective substrate was prepared as 100× stock solutions in the solvent listed below.
Incubation reactions for positive controls were terminated by adding 0.5 mL methanol, except for paclitaxel (CYP2C8) which was terminated by adding 0.75 mL of acetonitrile.
Specific activity for each CYP isoform was calculated based on the formation of metabolite from each CYP isoform-selective substrate.

[12] = 0.5 mg/mL pooled human liver microsomes with 100 μM Quercetin
[13] = 0.5 mg/mL pooled human liver microsomes with 0.1% DMSO (no inhibitor)
[14] = 0.5 mg/mL pooled human liver microsomes with 100 μM Diethyldithiocarbamate
[15] = 0.5 mg/mL pooled human liver microsomes with 1% water (no inhibitor)

## N[C@@H]1C[C@H]1c1ccccc1 (racemic) [Tranylcypromine]
CYP2A6 [1]
  CYP2A6 activity in presence of inhibitor: 18.7±0.597 pmol metabolite/minute/mg protein
  Metabolite Formation Adjusted Individual: 0.582 µM and 0.548 µM and 0.556 µM
  Metabolite Formation Adjusted Mean ± SD: 0.562 ± 0.0179 µM
  Metabolite Formation Raw: 0.582 µM and 0.5477 µM and 0.5561 µM
  Specific Activity Individual: 19.4 pmol metabolite/min/pmol protein and 18.3 pmol metabolite/min/pmol protein and 18.5 pmol metabolite/min/pmol protein
  Specific Activity Mean ± SD: 18.7 ± 0.597 pmol metabolite/min/pmol protein

## CCN(CC)C(=S)S [DDC, Diethyldithiocarbamate]
CYP2E1 [2]
  Metabolite Formation Adjusted Mean ± SD: 1.77 ± 0.0341 µM
  Specific Activity Mean ± SD: 58.9 ± 1.14 pmol metabolite/min/pmol protein
CYP2E1 [2]; microsomes
  CYP2E1 activity in presence of inhibitor: 58.9±1.14 pmol metabolite/minute/mg protein

## Cc1nc2c([nH]1)c(=O)n(C)c(=O)n2Cc1ccco1 [Furafylline]
CYP1A2
  Metabolite Formation Adjusted Mean ± SD: 0.593 ± 0.0333 µM

## CC(=O)O[C@]1(C(C)=O)CC[C@H]2[C@@H]3C=C(C)C4=CC(=O)CC[C@]4(C)[C@H]3CC[C@@]21C [Parent]
CYP2C8 [3]; [12]
  Area %: 99.11%
  Peak Area: 5734.70
CYP2C8 [3]; [13]
  Area %: 69.53%
  Peak Area: 4151.30
CYP2E1 [4]; [14]
  Area %: 90.95%
  Peak Area: 5225.10
CYP2E1 [4]; [15]
  Area %: 59.79%
  Peak Area: 3520.60
CYP2A6 [5]
  Area %: 59.79%
  Peak Area: 2932.40
CYP2B6 [6]
  Area %: 63.45%
  Peak Area: 2924.70
CYP2A6 [7]
  Area %: 100.00%
  Peak Area: 7120.60
CYP2B6 [8]
  Area %: 98.77%
  Peak Area: 7320.20
CYP2C8 [9]
  Area %: 99.28%
  Peak Area: 7474.90
CYP2E1 [10]
  Area %: 100.00%
  Peak Area: 7274.10

## O=c1c(O)c(-c2ccc(O)c(O)c2)oc2cc(O)cc(O)c12 [Quercetin]
CYP2C8 [11]
  Specific Activity Mean ± SD: 2.64 ± 0.250 pmol metabolite/min/pmol protein
CYP2C8 [11]; microsomes
  CYP2C8 activity in presence of inhibitor: 2.64±0.250 pmol metabolite/minute/mg protein
